Test: xn = mol fraction of the nth substance listed
Conditions: 101 kPa, Liquid; for viscosity: Falling or rolling sphere viscometry; for mass density: Vibrating tube method

CCOS(=O)(=O)[O-].CC[N+]1(C)CCCCC1 [1-ethyl-1-methylpiperidinium ethyl sulfate] + O
Conditions | mass density [kg/m3] | viscosity [mPa·s]
298.15 K, x1 = 0.106 | 1113.1 | 7.436
298.15 K, x1 = 0.1407 | 1128.31 | 11.14
298.15 K, x1 = 0.2161 | 1148.02 | 22.79
298.15 K, x1 = 0.2643 | 1155.38 | 31.79
298.15 K, x1 = 0.3605 | 1164.49 | 54.56
298.15 K, x1 = 0.4662 | 1170.4 | 96.57
298.15 K, x1 = 0.5583 | 1173.75 | 159.1
298.15 K, x1 = 0.6591 | 1176.55 | 276.5
298.15 K, x1 = 0.7296 | 1177.92 | 419.2
298.15 K, x1 = 0.8133 | 1179.24 | 690.5
298.15 K, x1 = 1 | 1181.33 | 1821
303.15 K, x1 = 0.106 | 1109.81 | 6.222
303.15 K, x1 = 0.1407 | 1124.96 | 9.197
303.15 K, x1 = 0.2161 | 1144.56 | 18.22
303.15 K, x1 = 0.2643 | 1152 | 25.04
303.15 K, x1 = 0.3605 | 1161.22 | 42.54
303.15 K, x1 = 0.4662 | 1167.23 | 74.01
303.15 K, x1 = 0.5583 | 1170.68 | 119.5
303.15 K, x1 = 0.6591 | 1173.32 | 202.2
303.15 K, x1 = 0.7296 | 1174.77 | 296.9
303.15 K, x1 = 0.8133 | 1176.06 | 473.2
303.15 K, x1 = 1 | 1178.23 | 1186
308.15 K, x1 = 0.106 | 1106.45 | 5.272
308.15 K, x1 = 0.1407 | 1121.5 | 7.687
308.15 K, x1 = 0.2161 | 1141.12 | 14.99
308.15 K, x1 = 0.2643 | 1148.59 | 20.4
308.15 K, x1 = 0.3605 | 1157.92 | 33.84
308.15 K, x1 = 0.4662 | 1164.02 | 57.65
308.15 K, x1 = 0.5583 | 1167.53 | 91.73
308.15 K, x1 = 0.6591 | 1170.15 | 150.9
308.15 K, x1 = 0.7296 | 1171.56 | 218.5
308.15 K, x1 = 0.8133 | 1172.89 | 333.5
308.15 K, x1 = 1 | 1175.1 | 795.7
313.15 K, x1 = 0.106 | 1103.05 | 4.518
313.15 K, x1 = 0.1407 | 1118.01 | 6.508
313.15 K, x1 = 0.2161 | 1137.63 | 12.34
313.15 K, x1 = 0.2643 | 1145.18 | 16.7
313.15 K, x1 = 0.3605 | 1154.61 | 27.55
313.15 K, x1 = 0.4662 | 1160.8 | 45.97
313.15 K, x1 = 0.5583 | 1164.37 | 71.4
313.15 K, x1 = 0.6591 | 1167.05 | 115.8
313.15 K, x1 = 0.7296 | 1168.39 | 163.1
313.15 K, x1 = 0.8133 | 1169.71 | 242.2
313.15 K, x1 = 1 | 1171.79 | 549.9
318.15 K, x1 = 0.106 | 1099.61 | 3.91
318.15 K, x1 = 0.1407 | 1114.5 | 5.576
318.15 K, x1 = 0.2161 | 1134.17 | 10.38
318.15 K, x1 = 0.2643 | 1141.75 | 14.03
318.15 K, x1 = 0.3605 | 1151.3 | 22.7
318.15 K, x1 = 0.4662 | 1157.58 | 37.27
318.15 K, x1 = 0.5583 | 1161.21 | 56.71
318.15 K, x1 = 0.6591 | 1163.94 | 89.86
318.15 K, x1 = 0.7296 | 1165.32 | 123.9
318.15 K, x1 = 0.8133 | 1166.53 | 171.1
318.15 K, x1 = 1 | 1168.85 | 391.8
323.15 K, x1 = 0.106 | 1096.14 | 3.415
323.15 K, x1 = 0.1407 | 1110.96 | 4.818
323.15 K, x1 = 0.2161 | 1130.66 | 8.774
323.15 K, x1 = 0.2643 | 1138.31 | 11.77
323.15 K, x1 = 0.3605 | 1147.97 | 18.73
323.15 K, x1 = 0.4662 | 1154.35 | 30.42
323.15 K, x1 = 0.5583 | 1158.04 | 45.67
323.15 K, x1 = 0.6591 | 1160.83 | 70.97
323.15 K, x1 = 0.7296 | 1162.25 | 92.8
323.15 K, x1 = 0.8133 | 1163.48 | 130.8
323.15 K, x1 = 1 | 1165.73 | 285.8
328.15 K, x1 = 0.106 | 1092.63 | 3.006
328.15 K, x1 = 0.1407 | 1107.4 | 4.206
328.15 K, x1 = 0.2161 | 1127.13 | 7.538
328.15 K, x1 = 0.2643 | 1134.87 | 10.13
328.15 K, x1 = 0.3605 | 1144.63 | 15.77
328.15 K, x1 = 0.4662 | 1151.12 | 25.37
328.15 K, x1 = 0.5583 | 1154.87 | 37.45
328.15 K, x1 = 0.6591 | 1157.71 | 56.75
328.15 K, x1 = 0.7296 | 1159.16 | 73.46
328.15 K, x1 = 0.8133 | 1160.43 | 101.6
328.15 K, x1 = 1 | 1162.62 | 212.6
333.15 K, x1 = 0.106 | 1089.08 | 2.667
333.15 K, x1 = 0.1407 | 1103.8 | 3.7
333.15 K, x1 = 0.2161 | 1123.62 | 6.103
333.15 K, x1 = 0.2643 | 1131.4 | 8.625
333.15 K, x1 = 0.3605 | 1141.31 | 13.48
333.15 K, x1 = 0.4662 | 1147.88 | 21.32
333.15 K, x1 = 0.5583 | 1151.7 | –
333.15 K, x1 = 0.6591 | 1154.59 | 44.89
333.15 K, x1 = 0.7296 | 1156.08 | 58.82
333.15 K, x1 = 0.8133 | 1157.38 | 80.45
333.15 K, x1 = 1 | 1159.54 | 162.5
338.15 K, x1 = 0.106 | 1085.5 | 2.383
338.15 K, x1 = 0.1407 | 1100.19 | 3.278
338.15 K, x1 = 0.2161 | 1120.07 | 4.937
338.15 K, x1 = 0.2643 | 1127.93 | 7.493
338.15 K, x1 = 0.3605 | 1137.96 | 11.57
338.15 K, x1 = 0.4662 | 1144.64 | 18.19
338.15 K, x1 = 0.5583 | 1148.52 | 26.14
338.15 K, x1 = 0.6591 | 1151.47 | 37.58
338.15 K, x1 = 0.7296 | 1152.99 | 47.7
338.15 K, x1 = 0.8133 | 1154.33 | 64.86
338.15 K, x1 = 1 | 1156.56 | 126.1
343.15 K, x1 = 0.106 | 1081.88 | 2.143
343.15 K, x1 = 0.1407 | 1096.54 | 2.926
343.15 K, x1 = 0.2161 | 1116.49 | 4.099
343.15 K, x1 = 0.2643 | 1124.44 | 6.755
343.15 K, x1 = 0.3605 | 1134.62 | 10.06
343.15 K, x1 = 0.4662 | 1141.4 | 15.53
343.15 K, x1 = 0.5583 | 1145.35 | 22.23
343.15 K, x1 = 0.6591 | 1148.36 | 32.44
343.15 K, x1 = 0.7296 | 1149.91 | 40.29
343.15 K, x1 = 0.8133 | 1151.31 | 53
343.15 K, x1 = 1 | 1153.58 | 99.87

From the NIST ThermoML archive (doi:10.1016/j.tca.2014.02.019)
